According to patent US8796292B2, “Selective antibacterials for clostridium difficile infections” (GLSynthesis Inc., priority 2009, dated 2014):
Values after ≈ are worked out from the molar mass of the structure shown. Where two headings read alike, the source gives them in different places.

Experiments:
[1] = system: C. difficile; experiment: agar dilution MIC assay of anaerobic bacteria; format: cell-based, Clostridium difficile
Protocol: (§1) Each compound was assayed against a panel of anaerobic bacteria in culture, consisting of Gram-positive organisms, such as Lactobacilli, Bifidobacteria, Clostridium spp., and Gram-negative bacteria, such as […] fragilis spp., according to guidelines of the Clinical and Laboratory Standards Institute (CLSI document M11-A7, CLSI, Wayne, Pa., 2007). […] One tenth mL of diluted bacteria containing 500-1000 colony-forming units (CFU) was plated and spread, and the plates incubated at 37° C. for 24-48 hours. MIC (minimum inhibitory concentration) is equivalent to the lowest concentration in μg/ml at which growth, i.e., colony formation, is not observed. […] Bacteria were assayed using a reference agar dilution method. Drug dilutions and drug-supplemented agar plates were prepared manually. The test organisms were maintained frozen at −80° C. The isolates were sub-cultured on Supplemented Brucella Agar (SBA) plates in a Bactron II anaerobic chamber and incubated for 48 hours at 35-36° C. in the Bactron II anaerobe chamber. Following inoculation, the drug-supplemented plates were incubated at 35° C. for 48 hours in the anaerobic environment (5% hydrogen, 5% carbon dioxide, 90% nitrogen) of the Bactron II. The MIC in μg/ml was read per Clinical and Laboratory Standards Institute guidelines.

[2] = system: Ba. fragilis; experiment: agar dilution MIC assay of anaerobic bacteria; format: cell-based; conditions: Bacteroides fragilis, B. fragilis, Micromyx Number 0123 (ATCC strain), Table 2
Protocol: as §1

[3] = C. diff. Strain no. 18285, Table 4
[4] = C. diff. Strain no. 19265, Table 4
[5] = C. diff. Strain no. 19273, Table 4
[6] = C. diff. Strain no. 19281, Table 4
[7] = C. diff. Strain no. 19291, Table 4
[8] = C. diff. Strain no. 19369, Table 4
[9] = C. diff. Strain no. 19382, Table 4
[10] = C. diff. Strain no. 19540, Table 4
[11] = C. diff. Strain no. 19580, Table 4
[12] = C. diff. Strain no. 19680, Table 4
[13] = C. diff. Strain no. 19681, Table 4
[14] = C. diff. Strain no. 19683, Table 4
[15] = C. diff. Strain no. 19687, Table 4
[16] = C. diff. Strain no. 20066, Table 4
[17] = C. diff. Strain no. 20152, Table 4
[18] = C. diff. Strain no. 20307, Table 4
[19] = C. diff. Strain no. 20494, Table 4
[20] = C. diff. Strain no. 20680, Table 4
[21] = C. diff. Strain no. 20934, Table 4
[22] = C. diff. Strain no. 21099, Table 4

Row | MIC [1, 3] [µg/mL] | MIC [1, 4] [µg/mL] | MIC [1, 5] [µg/mL] | MIC [1, 6] [µg/mL] | MIC [1, 7] [µg/mL] | MIC [1, 8] [µg/mL] | MIC [1, 9] [µg/mL] | MIC [1, 10] [µg/mL] | MIC [1, 11] [µg/mL] | MIC [1, 12] [µg/mL] | MIC [1, 13] [µg/mL] | MIC [1, 14] [µg/mL] | MIC [1, 15] [µg/mL] | MIC [1, 16] [µg/mL] | MIC [1, 17] [µg/mL] | MIC [1, 18] [µg/mL] | MIC [1, 19] [µg/mL] | MIC [1, 20] [µg/mL] | MIC [1, 21] [µg/mL] | MIC [1, 22] [µg/mL] | Structure (SMILES) | also measured
1 | 4 (≈ 9.45 µM) | 2 (≈ 4.72 µM) | 4 (≈ 9.45 µM) | 2 (≈ 4.72 µM) | 2 (≈ 4.72 µM) | 8 (≈ 18.9 µM) | 2 (≈ 4.72 µM) | 2 (≈ 4.72 µM) | 2 (≈ 4.72 µM) | 2 (≈ 4.72 µM) | 2 (≈ 4.72 µM) | 4 (≈ 9.45 µM) | 4 (≈ 9.45 µM) | 4 (≈ 9.45 µM) | 8 (≈ 18.9 µM) | 2 (≈ 4.72 µM) | 2 (≈ 4.72 µM) | 2 (≈ 4.72 µM) | 1 (≈ 2.36 µM) | 2 (≈ 4.72 µM) | O=c1[nH]c(NCc2ccc(Cl)c(Cl)c2)nc2ncn(CCN3CCOCC3)c12 [Compound 362E] | activity against C. diff. strains compared with 359E (in words) ([1]; summary of Table 4): preferred activity against C. diff. strains
2 |  |  |  |  |  |  |  |  |  |  |  |  |  |  |  |  |  |  |  |  | CCOCCn1cnc2nc(NCc3ccc(Cl)c(Cl)c3)[nH]c(=O)c21 [Compound 325E] | MIC [2]: > 32 µg/mL; MIC ([1]; Clostridioides difficile, C. diff., Micromyx Number 3579, Table 2, read-out: MIC): 2 µg/mL (≈ 5.23 µM); MIC ([1]; Clostridioides difficile, C. diff., Micromyx Number 3580, Table 2, read-out: MIC): 2 µg/mL (≈ 5.23 µM); MIC ([1]; Clostridioides difficile, C. diff., Micromyx Number 3581, Table 2, read-out: MIC): 1 µg/mL (≈ 2.62 µM); MIC ([1]; Clostridioides difficile, C. diff., Micromyx Number 3582 (ATCC strain), Table 2, read-out: MIC): 2 µg/mL (≈ 5.23 µM)
3 | 8 (≈ 18.3 µM) | 8 (≈ 18.3 µM) | 4 (≈ 9.15 µM) | 8 (≈ 18.3 µM) | 4 (≈ 9.15 µM) | 8 (≈ 18.3 µM) | 2 (≈ 4.57 µM) | 4 (≈ 9.15 µM) | 2 (≈ 4.57 µM) | 8 (≈ 18.3 µM) | 4 (≈ 9.15 µM) | 8 (≈ 18.3 µM) | 8 (≈ 18.3 µM) | 8 (≈ 18.3 µM) | 8 (≈ 18.3 µM) | 2 (≈ 4.57 µM) | 8 (≈ 18.3 µM) | 8 (≈ 18.3 µM) | 2 (≈ 4.57 µM) | 8 (≈ 18.3 µM) | O=c1[nH]c(NCc2ccc(Cl)c(Cl)c2)nc2ncn(CCCN3CCOCC3)c12 [Compound 363A] | 
4 |  |  |  |  |  |  |  |  |  |  |  |  |  |  |  |  |  |  |  |  | O=c1[nH]c(NCc2ccc(Cl)c(Cl)c2)nc2ncn(CCCCN3CCOCC3)c12 [Compound 258D, 7-[4-(N-morpholinyl)butyl]-2-(3,4-dichlorobenzylamino)-6-oxopurine] | MIC ([1]; Clostridioides difficile, C. diff. Strain no. 18285, Table 4, read-out: MIC): 8 µg/mL (≈ 17.7 µM); MIC ([1]; Clostridioides difficile, C. diff. Strain no. 19265, Table 4, read-out: MIC): 4 µg/mL (≈ 8.86 µM); MIC ([1]; Clostridioides difficile, C. diff. Strain no. 19273, Table 4, read-out: MIC): 8 µg/mL (≈ 17.7 µM); MIC ([1]; Clostridioides difficile, C. diff. Strain no. 19281, Table 4, read-out: MIC): 4 µg/mL (≈ 8.86 µM); MIC ([1]; Clostridioides difficile, C. diff. Strain no. 19291, Table 4, read-out: MIC): 4 µg/mL (≈ 8.86 µM); MIC ([1]; Clostridioides difficile, C. diff. Strain no. 19369, Table 4, read-out: MIC): 16 µg/mL (≈ 35.4 µM); MIC ([1]; Clostridioides difficile, C. diff. Strain no. 19382, Table 4, read-out: MIC): 4 µg/mL (≈ 8.86 µM); MIC ([1]; Clostridioides difficile, C. diff. Strain no. 19540, Table 4, read-out: MIC): 4 µg/mL (≈ 8.86 µM); MIC ([1]; Clostridioides difficile, C. diff. Strain no. 19580, Table 4, read-out: MIC): 2 µg/mL (≈ 4.43 µM); MIC ([1]; Clostridioides difficile, C. diff. Strain no. 19680, Table 4, read-out: MIC): 4 µg/mL (≈ 8.86 µM); MIC ([1]; Clostridioides difficile, C. diff. Strain no. 19681, Table 4, read-out: MIC): 4 µg/mL (≈ 8.86 µM); MIC ([1]; Clostridioides difficile, C. diff. Strain no. 19683, Table 4, read-out: MIC): 8 µg/mL (≈ 17.7 µM); MIC ([1]; Clostridioides difficile, C. diff. Strain no. 19687, Table 4, read-out: MIC): 8 µg/mL (≈ 17.7 µM); MIC ([1]; Clostridioides difficile, C. diff. Strain no. 20066, Table 4, read-out: MIC): 8 µg/mL (≈ 17.7 µM); MIC ([1]; Clostridioides difficile, C. diff. Strain no. 20152, Table 4, read-out: MIC): 16 µg/mL (≈ 35.4 µM); MIC ([1]; Clostridioides difficile, C. diff. Strain no. 20307, Table 4, read-out: MIC): 4 µg/mL (≈ 8.86 µM); MIC ([1]; Clostridioides difficile, C. diff. Strain no. 20494, Table 4, read-out: MIC): 4 µg/mL (≈ 8.86 µM); MIC ([1]; Clostridioides difficile, C. diff. Strain no. 20680, Table 4, read-out: MIC): 4 µg/mL (≈ 8.86 µM); MIC ([1]; Clostridioides difficile, C. diff. Strain no. 20934, Table 4, read-out: MIC): 4 µg/mL (≈ 8.86 µM); MIC ([1]; Clostridioides difficile, C. diff. Strain no. 21099, Table 4, read-out: MIC): 2 µg/mL (≈ 4.43 µM)
